Experimental data reported in PubChem BioAssay (NCI).
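A five-concentration, 48-hour dose response in 96-well plates underlies each endpoint, interpolated linearly between surrounding concentrations. GI50 marks 50% less growth. Definition used: TGI = concentration required for complete inhibition of growth.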

What was measured:
Assay in all cases: DTP human tumour cell line panel, 48 h
786-0 renal = tested on: 786-0 renal
A498 renal = tested on: A498 renal
A549 NSCLC = tested on: A549 NSCLC
ACHN renal = tested on: ACHN renal
BT-549 breast = tested on: BT-549 breast
CAKI-1 renal = tested on: CAKI-1 renal
CCRF-CEM leukemia = tested on: CCRF-CEM leukemia
COLO 205 colon = tested on: COLO 205 colon
DU-145 prostate = tested on: DU-145 prostate
EKVX NSCLC = tested on: EKVX NSCLC
HCC-2998 colon = tested on: HCC-2998 colon
HCT-116 colon = tested on: HCT-116 colon
HCT-15 colon = tested on: HCT-15 colon
HL-60(TB) leukemia = tested on: HL-60(TB) leukemia
HOP-62 NSCLC = tested on: HOP-62 NSCLC
HOP-92 NSCLC = tested on: HOP-92 NSCLC
HS 578T breast = tested on: HS 578T breast
HT29 colon = tested on: HT29 colon
IGROV1 ovarian = tested on: IGROV1 ovarian
K-562 leukemia = tested on: K-562 leukemia
KM12 colon = tested on: KM12 colon
LOX IMVI melanoma = tested on: LOX IMVI melanoma
M14 melanoma = tested on: M14 melanoma
MALME-3M melanoma = tested on: MALME-3M melanoma
MCF7 breast = tested on: MCF7 breast
MDA-MB-231 breast = tested on: MDA-MB-231 breast
MDA-MB-435 = tested on: MDA-MB-435
MOLT-4 leukemia = tested on: MOLT-4 leukemia
NCI-H226 lung = tested on: NCI-H226 lung
NCI-H23 lung = tested on: NCI-H23 lung
NCI-H460 lung = tested on: NCI-H460 lung
NCI-H522 lung = tested on: NCI-H522 lung
NCI/ADR-RES ovarian = tested on: NCI/ADR-RES ovarian
OVCAR-4 ovarian = tested on: OVCAR-4 ovarian
OVCAR-5 ovarian = tested on: OVCAR-5 ovarian
OVCAR-8 ovarian = tested on: OVCAR-8 ovarian
PC-3 prostate = tested on: PC-3 prostate
RPMI-8226 leukemia = tested on: RPMI-8226 leukemia
RXF 393 renal = tested on: RXF 393 renal
SF-268 CNS = tested on: SF-268 CNS
SF-295 CNS = tested on: SF-295 CNS
SF-539 CNS = tested on: SF-539 CNS
SK-MEL-2 melanoma = tested on: SK-MEL-2 melanoma
SK-MEL-28 melanoma = tested on: SK-MEL-28 melanoma
SK-MEL-5 melanoma = tested on: SK-MEL-5 melanoma
SK-OV-3 ovarian = tested on: SK-OV-3 ovarian
SN12C renal = tested on: SN12C renal
SNB-19 CNS = tested on: SNB-19 CNS
SNB-75 CNS = tested on: SNB-75 CNS
SR leukemia = tested on: SR leukemia
SW-620 colon = tested on: SW-620 colon
T-47D breast = tested on: T-47D breast
TK-10 renal = tested on: TK-10 renal
U251 CNS = tested on: U251 CNS
UACC-257 melanoma = tested on: UACC-257 melanoma
UACC-62 melanoma = tested on: UACC-62 melanoma
UO-31 renal = tested on: UO-31 renal

COc1cc[c]([Hg][Cl])cc1
GI50 (786-0 renal): 3.76 µM | TGI (786-0 renal): 10.8 µM | GI50 (A498 renal): 17.6 µM | TGI (A498 renal): 31.5 µM | GI50 (A549 NSCLC): 23.8 µM | TGI (A549 NSCLC): 40.8 µM | GI50 (ACHN renal): 1.81 µM | TGI (ACHN renal): 3.47 µM | GI50 (BT-549 breast): 2.97 µM | TGI (BT-549 breast): 9.16 µM | GI50 (CAKI-1 renal): 6.55 µM | TGI (CAKI-1 renal): 23 µM | GI50 (CCRF-CEM leukemia): 1.06 µM | TGI (CCRF-CEM leukemia): 5.4 µM | GI50 (COLO 205 colon): 2.06 µM | TGI (COLO 205 colon): 4 µM | GI50 (DU-145 prostate): 5.23 µM | TGI (DU-145 prostate): 18.2 µM | GI50 (EKVX NSCLC): 9.51 µM | TGI (EKVX NSCLC): 22.8 µM | GI50 (HCC-2998 colon): 13.5 µM | TGI (HCC-2998 colon): 27.8 µM | GI50 (HCT-116 colon): 4.49 µM | TGI (HCT-116 colon): 18.4 µM | GI50 (HCT-15 colon): 1.08 µM | TGI (HCT-15 colon): 2.36 µM | GI50 (HL-60(TB) leukemia): 3.08 µM | TGI (HL-60(TB) leukemia): 7.67 µM | GI50 (HOP-62 NSCLC): 20.4 µM | TGI (HOP-62 NSCLC): 37.8 µM | GI50 (HOP-92 NSCLC): 2.26 µM | TGI (HOP-92 NSCLC): 4.01 µM | GI50 (HS 578T breast): 1.96 µM | TGI (HS 578T breast): 47.2 µM | GI50 (HT29 colon): 5.4 µM | TGI (HT29 colon): 61 µM | GI50 (IGROV1 ovarian): 1.53 µM | TGI (IGROV1 ovarian): 3.92 µM | GI50 (K-562 leukemia): 1.84 µM | TGI (K-562 leukemia): 6.73 µM | GI50 (KM12 colon): 14.4 µM | TGI (KM12 colon): 27.8 µM | GI50 (LOX IMVI melanoma): 1.42 µM | TGI (LOX IMVI melanoma): 2.74 µM | GI50 (M14 melanoma): 1.68 µM | TGI (M14 melanoma): 3.87 µM | GI50 (MALME-3M melanoma): 1.88 µM | TGI (MALME-3M melanoma): 3.69 µM | GI50 (MCF7 breast): 1.01 µM | TGI (MCF7 breast): 4.53 µM | GI50 (MDA-MB-231 breast): 2.19 µM | TGI (MDA-MB-231 breast): 4.92 µM | GI50 (MDA-MB-435): 1.61 µM | TGI (MDA-MB-435): 3.2 µM | GI50 (MOLT-4 leukemia): 1.64 µM | TGI (MOLT-4 leukemia): 6.59 µM | GI50 (NCI-H226 lung): 22.9 µM | TGI (NCI-H226 lung): 50.6 µM | GI50 (NCI-H23 lung): 3.03 µM | TGI (NCI-H23 lung): 22.4 µM | GI50 (NCI-H460 lung): 10.3 µM | TGI (NCI-H460 lung): 25.5 µM | GI50 (NCI-H522 lung): 0.45 µM | TGI (NCI-H522 lung): 2.61 µM | GI50 (NCI/ADR-RES ovarian): 11.7 µM | TGI (NCI/ADR-RES ovarian): > 100 µM | GI50 (OVCAR-4 ovarian): 1.96 µM | TGI (OVCAR-4 ovarian): 11.5 µM | GI50 (OVCAR-5 ovarian): 20.1 µM | TGI (OVCAR-5 ovarian): 37.6 µM | GI50 (OVCAR-8 ovarian): 6.11 µM | TGI (OVCAR-8 ovarian): > 100 µM | GI50 (PC-3 prostate): 16.2 µM | TGI (PC-3 prostate): 31.8 µM | GI50 (RPMI-8226 leukemia): 3.39 µM | TGI (RPMI-8226 leukemia): 14.7 µM | GI50 (RXF 393 renal): 1.76 µM | TGI (RXF 393 renal): 3.14 µM | GI50 (SF-268 CNS): 3.27 µM | TGI (SF-268 CNS): 13.3 µM | GI50 (SF-295 CNS): 15.5 µM | TGI (SF-295 CNS): 29.7 µM | GI50 (SF-539 CNS): 3.3 µM | TGI (SF-539 CNS): 11.1 µM | GI50 (SK-MEL-2 melanoma): 4.39 µM | TGI (SK-MEL-2 melanoma): 17.4 µM | GI50 (SK-MEL-28 melanoma): 1.65 µM | TGI (SK-MEL-28 melanoma): 3.36 µM | GI50 (SK-MEL-5 melanoma): 2.71 µM | TGI (SK-MEL-5 melanoma): 11.1 µM | GI50 (SK-OV-3 ovarian): 14.2 µM | TGI (SK-OV-3 ovarian): 27.3 µM | GI50 (SN12C renal): 2.51 µM | TGI (SN12C renal): 6.17 µM | GI50 (SNB-19 CNS): 4.59 µM | TGI (SNB-19 CNS): 16.6 µM | GI50 (SNB-75 CNS): 1.69 µM | TGI (SNB-75 CNS): 4.37 µM | GI50 (SR leukemia): 0.245 µM | TGI (SR leukemia): 4.13 µM | GI50 (SW-620 colon): 1.54 µM | TGI (SW-620 colon): 3.18 µM | GI50 (T-47D breast): 1.68 µM | TGI (T-47D breast): 4.47 µM | GI50 (TK-10 renal): 17.5 µM | TGI (TK-10 renal): 31.4 µM | GI50 (U251 CNS): 1.82 µM | TGI (U251 CNS): 3.51 µM | GI50 (UACC-257 melanoma): 4.16 µM | TGI (UACC-257 melanoma): 14.5 µM | GI50 (UACC-62 melanoma): 4.09 µM | TGI (UACC-62 melanoma): 14.9 µM | GI50 (UO-31 renal): 14.6 µM | TGI (UO-31 renal): 28.9 µM
